Laboratory results as given in ChEMBL document CHEMBL5104178, “Nitroimidazopyrazinones with Oral Activity against Tuberculosis and Chagas Disease in Mouse Models of Infection” (J Med Chem, 2022).
pIC50: −log10 of the molar value. In brackets after ≈: the same amount, converted by molar mass.

Assays:
[1] = test system: Mycobacterium tuberculosis; assay: Substrate activity at Mycobacterium tuberculosis Ddn expressed in Escherichia coli BL21 (DE3) assessed as oxidation of F420H2 by measuring Kcat by spectrophotometric analysis
[2] = test system: Mycobacterium tuberculosis; assay: Substrate activity at Mycobacterium tuberculosis Ddn expressed in Escherichia coli BL21 (DE3) assessed as oxidation of F420H2 by measuring Km by spectrophotometric analysis
[3] = test system: Mycobacterium tuberculosis; assay: Substrate activity at Mycobacterium tuberculosis Ddn expressed in Escherichia coli BL21 (DE3) assessed as oxidation of F420H2 by measuring Kcat/Km by spectrophotometric analysis
[4] = Solubility of compound in PBS at 7.4 by LC-UV analysis; type: physicochemical; details: pH 7.4
[5] = Solubility of compound in water by LC-UV analysis; type: physicochemical
[6] = test system: Mycobacterium tuberculosis; assay: Antimycobacterial activity against Mycobacterium tuberculosis H37Ra ATCC 25177 assessed as bacterial growth inhibition incubated for 6 days under normoxic condition by resazurin microtiter assay; type: functional; details: H37Ra ATCC 25177, 144 h, time 6 day
[7] = test system: Mycobacterium avium; assay: Antimycobacterial activity against Mycobacterium avium ATCC 25291 assessed as bacterial growth inhibition incubated for 6 days under normoxic condition by resazurin microtiter assay; type: functional; details: ATCC 25291, 144 h, time 6 day
[8] = test system: Mycolicibacterium smegmatis; assay: Antimycobacterial activity against Mycobacterium smegmatis mc2155 ATCC 700084 assessed as bacterial growth inhibition incubated for 24 hrs under normoxic condition by resazurin microtiter assay; type: functional
[9] = test system: Trypanosoma cruzi; assay: Antitrypanosomal activity against Trypanosoma cruzi Tulahuen amastigotes infected in mouse 3T3 cells assessed as inhibition of parasite growth incubated for 48 hrs by […] staining based analysis; type: functional, organism-based
[10] = test system: Trypanosoma cruzi; assay: Antitrypanosomal activity against Trypanosoma cruzi Tulahuen amastigotes infected in mouse 3T3 cells assessed as reduction in parasite growth at Emax concentration incubated for 48 hrs by […] staining based analysis; type: functional; set-up: scale not given: the % may be the effect or the level left
[11] = Cytotoxicity against mouse 3T3 cells; type: toxicity, cell-based; details: NIH3T3 cells
[12] = Selectivity index, ratio of CC50 for cytotoxicity against mouse 3T3 cells to IC50 for antitrypanosomal activity against Trypanosoma cruzi Tulahuen amastigotes infected in mouse 3T3 cells; type: toxicity, cell-based; details: read-out: Ratio CC50/IC50
[13] = test system: Mycobacterium tuberculosis; assay: Antimycobacterial activity against Mycobacterium tuberculosis H37Rv ATCC 27294 assessed as bacterial growth inhibition incubated for 5 days under normoxic condition by resazurin microtiter assay; type: functional; details: H37Rv ATCC 27294, 120 h, time 5 day
[14] = test system: Mycobacterium tuberculosis; assay: Antimycobacterial activity against Mycobacterium tuberculosis H37Rv ATCC 27294 assessed as bacterial growth inhibition incubated for 5 days under hypoxic condition by resazurin microtiter assay; type: functional; details: H37Rv ATCC 27294, 120 h, time 5 day
[15] = Cmax in CD-1 mouse at 20 mg/kg, po administered as DMSO/PEG400/Cremophor RH40/water formulation measured upto 24 hrs by LC-MS/MS analysis; type: ADME, organism-based; set-up: dose 20 mg/kg, time < 24 hrs, route po; details: in vivo
[16] = AUC(0 to 8 hrs) in CD-1 mouse at 20 mg/kg, po administered as DMSO/PEG400/Cremophor RH40/water formulation measured upto 24 hrs by LC-MS/MS analysis; type: ADME, organism-based; set-up: time < 24 hrs, dose 20 mg/kg, route po; details: in vivo
[17] = Tmax in CD-1 mouse at 20 mg/kg, po administered as DMSO/PEG400/Cremophor RH40/water formulation measured upto 24 hrs by LC-MS/MS analysis; type: ADME, organism-based; details: in vivo
[18] = Half life in CD-1 mouse at 20 mg/kg, po administered as DMSO/PEG400/Cremophor RH40/water formulation measured upto 24 hrs by LC-MS/MS analysis; type: ADME, organism-based; details: in vivo
[19] = Oral bioavailability in CD-1 mouse at 20 mg/kg administered as DMSO/PEG400/Cremophor RH40/water formulation measured upto 24 hrs by LC-MS/MS analysis; type: ADME, organism-based; details: in vivo
[20] = Volume of distribution at steady state in CD-1 mouse at 5 mg/kg, iv administered as DMSO/PEG400/Cremophor RH40/water formulation measured upto 24 hrs by LC-MS/MS analysis; type: ADME, organism-based; details: in vivo, read-out: Vdss
[21] = Clearance in CD-1 mouse at 5 mg/kg, iv administered as DMSO/PEG400/Cremophor RH40/water formulation measured upto 24 hrs by LC-MS/MS analysis; type: ADME, organism-based; details: in vivo
[22] = Half life in CD-1 mouse at 5 mg/kg, iv administered as DMSO/PEG400/Cremophor RH40/water formulation measured upto 24 hrs by LC-MS/MS analysis; type: ADME, organism-based; details: in vivo
[23] = Plasma protein binding in human; type: ADME, cell-free; details: read-out: PPB (converted)
[24] = Plasma protein binding in mouse; type: ADME, cell-free; details: read-out: PPB (converted)
[25] = Metabolic stability in human microsomes assessed as compound remaining measured after 2 hrs; type: ADME, Microsome; details: read-out: Stability
[26] = Metabolic stability in mouse microsomes assessed as compound remaining measured after 2 hrs; type: ADME, Microsome; details: read-out: Stability
[27] = Stability in human plasma assessed as compound remaining measured after 2 hrs; type: ADME, cell-free; details: read-out: Stability
[28] = Cmax in CD-1 mouse at 20 mg/kg, po administered as DMSO/PEG400 formulation measured upto 24 hrs by LC-MS/MS analysis; type: ADME, organism-based; set-up: dose 20 mg/kg, time < 24 hrs, route po; details: in vivo
[29] = AUC(0 to 8 hrs) in CD-1 mouse at 20 mg/kg, po administered as DMSO/PEG400 formulation measured upto 24 hrs by LC-MS/MS analysis; type: ADME, organism-based; set-up: dose 20 mg/kg, time < 24 hrs, route po; details: in vivo
[30] = Tmax in CD-1 mouse at 20 mg/kg, po administered as DMSO/PEG400 formulation measured upto 24 hrs by LC-MS/MS analysis; type: ADME, organism-based; details: in vivo
[31] = Oral bioavailability in CD-1 mouse at 20 mg/kg administered as DMSO/PEG400 formulation measured upto 24 hrs by LC-MS/MS analysis; type: ADME, organism-based; details: in vivo
[32] = Volume of distribution at steady state in CD-1 mouse at 5 mg/kg, iv administered as DMSO/PEG400 formulation measured upto 24 hrs by LC-MS/MS analysis; type: ADME, organism-based; details: in vivo, read-out: Vdss
[33] = Clearance in CD-1 mouse at 5 mg/kg, iv administered as DMSO/PEG400 formulation measured upto 24 hrs by LC-MS/MS analysis; type: ADME, organism-based; details: in vivo
[34] = Half life in CD-1 mouse at 5 mg/kg, iv administered as DMSO/PEG400 formulation measured upto 24 hrs by LC-MS/MS analysis; type: ADME, organism-based; details: in vivo
[35] = test system: Mycobacterium tuberculosis; assay: Antimycobacterial activity against Mycobacterium tuberculosis H37Rv ATCC 27294 assessed as bacterial growth inhibition at 0.125 to 8 ug/ml incubated for 5 days under hypoxic condition by resazurin microtiter assay relative to control; type: functional; details: dose 0.125-8 µg/ml; time 5 day; at 0.125 to 8 µg/mL

Row | Compound | kcat [1] | Km [2] [µM] | kcat/Km [3] [M⁻¹ s⁻¹] | MIC [6] [mg/L] | MIC [7] [mg/L] | MIC [8] [mg/L] | MIC [13] [mg/L] | other results
1 | O=c1c2nc([N+](=O)[O-])cn2ccn1Cc1cncc(-c2cccc(OC(F)(F)F)c2)c1 | 1.4 10^-2/s | 4.3 | 3190 |  |  |  |  | 
2 | O=c1c2nc([N+](=O)[O-])cn2ccn1Cc1ccccc1 |  |  |  |  |  |  |  | solubility [4]: 2.7 µM (≈ 0.73 µg/mL); solubility ([5]; water, read-out: solubility): 3.2 µM (≈ 0.865 µg/mL)
3 | NNC(=O)c1ccncc1 [ISONIAZID] |  |  |  | 0.031 (≈ 0.226 µM) | > 32 | > 32 |  | 
4 | O=c1c2nc([N+](=O)[O-])cn2ccn1Cc1ccc(-c2cccc(OC(F)(F)F)c2)cc1 | 3.1 10^-3/s | 8.4 | 370 |  |  |  |  | 
5 | CC[C@@H]([C@H](C)O)n1ncn(-c2ccc(N3CCN(c4ccc(OC[C@@H]5CO[C@@](Cn6cncn6)(c6ccc(F)cc6F)C5)cc4)CC3)cc2)c1=O [POSACONAZOLE] |  |  |  |  |  |  |  | pIC50 ([9]; NIH3T3, 48 h): 8.70; IC90 ([9]; NIH3T3, time 48 hrs): 4 nM; Activity [10]: 87%; CC50 [11]: > 1000 nM; selectivity ratio [12]: > 569
6 | O=c1[nH]c(-c2ccccc2)cn2cc([N+](=O)[O-])nc12 | 1.3 10^-3/s | 164 | 8.1 | > 32 | > 32 | > 32 | > 32 | solubility ([5]; buffer): 27 µM (≈ 6.92 µg/mL); MIC [14]: > 32 mg/L; Cmax [15]: 13 µg/mL; AUC(0-t) at 24 h [16]: 88.3 µg·h/mL; Tmax [17]: 2 h; half-life [18]: 3.2 h; bioavailability [19]: 87%; Vd [20]: 0.34 L/kg; clearance [21]: 0.203 L/h/kg; half-life [22]: 1.2 h
7 | Cc1nc(OCc2ccc(OC(F)(F)F)cc2)c2nc([N+](=O)[O-])cn2c1C | 7 10^-4/s | 30 | 24 | > 32 | > 32 | > 32 | > 32 | MIC [14]: > 32 mg/L
8 | O=c1c2nc([N+](=O)[O-])cn2ccn1Cc1ccc(-c2cccc(OC(F)(F)F)c2)nc1 | 1.3 10^-3/s | 5 | 266 |  |  |  |  | 
9 | O=c1c2nc([N+](=O)[O-])cn2ccn1Cc1cccc(OC(F)(F)F)c1 | 3.1 10^-3/s | 45 | 70 |  | > 32 | > 32 |  | solubility ([5]; water, read-out: solubility): 5.4 µM (≈ 1.91 µg/mL); fraction unbound [23]: < 0.01; fraction unbound [24]: < 0.01; remaining at 2 h [25]: > 99%; remaining at 2 h [26]: 97%; remaining at 2 h [27]: 99%; Cmax [28]: 2.9 µg/mL; AUC(0-t) at 24 h [29]: 15.6 µg·h/mL; Tmax [30]: 3 h; bioavailability [31]: 73%; Vd [32]: 1.1 L/kg; clearance [33]: 0.606 L/h/kg; half-life [34]: 1.1 h
10 | Cc1cccc(Cn2ccn3cc([N+](=O)[O-])nc3c2=O)c1 |  |  |  | ≤ 0.016 | > 32 | > 32 | 0.063 (≈ 0.222 µM) | inhibition (INH) [35]: 70%
